How the values were obtained:
Test in all cases: differential drug sensitivity score (dDSS) relative to sarcoma reference cohort mean DSS (DSS units (0-100 scale difference)); higher = more selective sensitivity than reference sarcomas
Conditions in all cases: exposure time: 72 h; concentration range: 10-10000 nM
[1] = test system: CDS-ZH001-2 (patient-derived CIC-DUX4 sarcoma tumoroid)
Description: (§1)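 Drug response profiling of patient-derived Ewing sarcoma and CIC::DUX4 sarcoma tumoroid models (or cells tested directly after isolation from the tumor, 'direct'). The DSS is the normalised AUC (0-100); dDSS is the sample DSS minus the mean DSS of a 34-sarcoma reference cohort profiled in the same lab.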

[2] = test system: CDS-ZH001 (patient-derived CIC-DUX4 sarcoma tumoroid)
Description: as §1

[3] = test system: CDS-ZH002 direct (CIC-DUX4 sarcoma cells right after isolation)
Description: as §1

[4] = test system: CDS-ZH002 (patient-derived CIC-DUX4 sarcoma tumoroid)
Description: as §1

[5] = test system: CDS-ZH003 (patient-derived CIC-DUX4 sarcoma tumoroid)
Description: as §1

[6] = test system: ES-ZH001 (patient-derived Ewing sarcoma tumoroid)
Description: as §1

[7] = test system: ES-ZH002 (patient-derived Ewing sarcoma tumoroid)
Description: as §1

[8] = test system: ES-ZH004 (patient-derived Ewing sarcoma tumoroid)
Description: as §1

[9] = test system: ES-ZH007 (patient-derived Ewing sarcoma tumoroid)
Description: as §1

[10] = test system: ES-ZH008 (patient-derived Ewing sarcoma tumoroid)
Description: as §1

[11] = test system: ES-ZH009 (patient-derived Ewing sarcoma tumoroid)
Description: as §1

[12] = test system: ES-ZH016 direct (Ewing sarcoma cells right after isolation)
Description: as §1

[13] = test system: ES-ZH016 (patient-derived Ewing sarcoma tumoroid)
Description: as §1

Compound	differential drug sensitivity score [1]	differential drug sensitivity score [2]	differential drug sensitivity score [3]	differential drug sensitivity score [4]	differential drug sensitivity score [5]	differential drug sensitivity score [6]	differential drug sensitivity score [7]	differential drug sensitivity score [8]	differential drug sensitivity score [9]	differential drug sensitivity score [10]	differential drug sensitivity score [11]	differential drug sensitivity score [12]	differential drug sensitivity score [13]
CCN(CC)CCCC(C)Nc1nc(C)cc(Nc2ccc3nc(C)cc(N)c3c2)n1 (centres undefined)	9.7	-0.8	2.8	1.1	-1	-1	0.7	1.1	0.4	-1	-0.9	-1	-1
CCN(c1cc(C#CCN2CCOCC2)cc(C(=O)NCc2c(C)cc(C)[nH]c2=O)c1C)[C@H]1CC[C@H](N(C)CCOC)CC1	-0.9	-1.4	-1.2	-0.7	-1.4	3.1	2.8	-1.4	-1.4	0.2	-1.4	-1.4	-1.4
CCc1ccc(/C=C2/SC(=S)NC2=O)cc1	1	3.2	-2.1	2.3	-1.6	-2.1	1.2	-2.1	-1.2	-1.6	3.1	4	5.6
CCc1cncnc1N1CCN(Cc2nc3ccc(C(F)(F)F)cc3[nH]2)CC1	-3.6	-3.7	-2.4	-1	-0.6	-0.7	-3.9	-2.8	-1.7	-3.8	3.3	-4.2	-3.1
CCn1c(-c2nonc2N)nc2c(C#CC(C)(C)O)ncc(OC[C@H]3CCCNC3)c21	-9.5	5.1	-3.1	-9.5	-9.5	0.5	13	10.8	4.4	15.5	5.5	-1	1.1
CCn1c(-c2nonc2N)nc2cnc(Oc3cccc(NC(=O)c4ccc(OCCN5CCOCC5)cc4)c3)cc21	1.1	-2.7	-2.4	-2.9	-1.3	1.8	4.5	-2.6	-2.1	-2.1	6.5	-1.7	2
CCn1cc(C(=O)O)c(=O)c2c(N)c(F)c(NC3CCCCC3)cc21	-0.9	-0.9	–	-0.9	-0.9	-0.9	-0.9	-0.9	-0.3	-0.9	3.3	7.2	-0.9
CN(c1ncccc1CNc1nc(Nc2ccc3c(c2)CC(=O)N3)ncc1C(F)(F)F)S(C)(=O)=O	1.5	5.1	3.8	-0.6	-0.7	5	6	-0.4	-0.4	-0.7	0.8	-1.2	2.2
COc1cc2c(Nc3ccc(NC(=O)c4ccccc4)cc3)ncnc2cc1OCCCN1CCOCC1	2.9	0.8	0.1	-2.2	-2.2	4.9	8.1	2.2	0.4	-2	7.1	6.7	1.6
COc1cc2nc(N3CCCN(C)CC3)nc(NC3CCN(Cc4ccccc4)CC3)c2cc1OC	4	0.2	1.5	-1.1	4	0.7	0	6.4	7.4	1.2	-0.4	3.9	-0.1
Cc1c(-c2c(-c3ccc(F)o3)sc3ncnc(O[C@H](Cc4ccccc4OCc4ccnn4CC(F)(F)F)C(=O)O)c23)ccc(OCCN2CCN(C)CC2)c1Cl	29.6	32.7	19.6	10.4	31.7	-11.5	9.2	12.2	28.5	8.1	11.6	14.5	7
Cc1c(-c2ccc(N3CCc4cccc(C(=O)Nc5nc6ccccc6s5)c4C3)nc2C(=O)O)cnn1CC12CC3CC(CC(C3)C1)C2	–	–	2.8	–	–	–	–	–	–	–	10.9	7.8	-9.5
Cc1ccc2nc(NCCN)c3ncc(C)n3c2c1	4.2	3	2.2	1	-1.9	1.4	3.8	-2.3	1.4	-1.3	1.8	0.5	3.7
Cc1nc(Nc2n[nH]c3c2CN(C(=O)N[C@H](CN(C)C)c2ccccc2)C3(C)C)c2sccc2n1	5.3	5.9	3.6	0	-5.2	5.3	15.4	9.2	17.9	4.9	12.7	-4.7	0.7
Cc1nn(C)c(COc2ccc(N3CCN(S(=O)(=O)N(C)C)CC3)cc2)c1-c1cccc2c(CCCOc3cccc4ccccc34)c(C(=O)O)n(CCN3CCOCC3)c12	-0.8	4.4	-0.8	-0.8	0	-0.8	-0.4	-0.8	-0.8	-0.8	-0.8	-0.8	-0.8
Cn1cc(C2=C(c3ccc(Cl)cc3Cl)C(=O)NC2=O)c2ccccc21	-1.5	-1.5	-1.5	-1.5	-6.5	6.9	5.1	2.1	0.1	3.8	-1.5	0.4	-1.5
O=C(NCC1CCOCC1)c1cnc(Nc2ccc(Cl)cc2Cl)nc1C(F)(F)F	-0.5	-0.5	-0.5	-0.5	-0.5	-0.5	-0.5	-0.5	-0.5	-0.5	-0.5	-0.5	-0.5
O=C(Nc1ccncc1)c1cc([N+](=O)[O-])ccc1Cl	-2.3	-0.7	5.4	-3	-14.7	11.8	14.8	11.7	0.8	12.2	-3.3	-0.6	-2.4
O=c1cc(-c2cccc3c2Sc2ccccc2S3)oc(N2CCOCC2)c1	2.9	0	3.7	-0.2	-1.3	-1.3	-1.3	-1.3	-1.3	-1.3	-0.4	13.8	-1.3
CNC(=O)Nc1ccc2c(c1)CC[C@@]21OC(=O)N(CC(=O)N(Cc2ccc(F)cc2)[C@@H](C)C(F)(F)F)C1=O [A-485]	-2.1	8.4	6.8	6.8	22.3	4.6	5.2	-3.4	2.9	1.4	2.6	-5.4	-4
CCN1CCN(Cc2ccc(-c3cc4c(N[C@H](C)c5ccccc5)ncnc4[nH]3)cc2)CC1 [AEE788]	-0.2	-0.7	-1.2	-3	5.8	3.6	0.3	-1.1	-4	-0.1	1.6	-6.1	-4.1
O=C(Nc1c[nH]nc1-c1nc2ccc(CN3CCOCC3)cc2[nH]1)NC1CC1 [AT9283]	7	-1.2	-0.7	-3.6	-2	24.4	10.8	4	6.1	18.4	24.5	14.2	10.8
N#Cc1ccc2[nH]c(O)c(-c3ccc(CN4CCOCC4)cn3)c2c1 [AZD1080]	-0.1	-0.1	-0.1	-0.1	-0.1	-0.1	-0.1	0.6	0.4	1	0	0.2	-0.1
N[C@@H]1CCCN(c2c(/C=C3\SC(=O)NC3=O)cccc2-c2ccccc2)C1 [AZD1208]	2	8.2	1.1	1.2	13.6	-0.4	0	-0.8	-2.9	1.8	3.6	-2.9	-2.9
O=C(O)C1(C(=O)O)CCC1.[NH2-].[NH2-].[Pt+2] [Carboplatin]	-1.6	–	-1.2	-1.6	-1.6	-0.3	2.2	0.8	-0.9	2.5	-1.6	8.6	1.7
CCN(CC)CCCC(C)Nc1ccnc2cc(Cl)ccc12 (centres undefined) [Chloroquine]	4.7	0.3	–	5.3	-3.8	-3.8	-0.6	3	2.8	1.4	-2	–	–
N.N.[Cl][Pt][Cl] [Cisplatin]	–	–	-2.4	-0.5	–	-1.1	7.1	5.8	3.9	2.9	-1.4	–	–
COc1ccc(-c2nc(N3CCOCC3)c3sc(CN(C)c4ncc(C(=O)NO)cn4)cc3n2)cn1 [Fimepinostat]	5.7	1.5	–	-3.2	-0.5	5.9	6	8.6	10.6	9.2	6.1	8.8	0.5
CC(C)(C)Cn1c(N)nc2ccc(-c3[nH]c(C(C)(C)C)nc3-c3ccc(F)cc3)nc21 [Ralimetinib]	6.3	-2.9	–	4.9	13.4	-5.3	0	-2.2	-4.3	-4.4	-3.2	–	–
